Measurements taken from PMC11685355, “Solid lipid nanoparticles for increased oral bioavailability of acalabrutinib in chronic lymphocytic leukaemia” (Discover Nano, 2024).
≈ marks a conversion by molar mass, not a printed value. Where two headings read alike, the source gives them in different places.

Assays:
[1] = Solubility of ACP in surfactant solutions; assay type: physicochemical; settings: aqueous with cosolvent or surfactant or cyclodextrin
Description: Surfactants are primarily chosen on the basis of two criteria: firstly, the affinity of ACP towards the aqueous solution in the presence of the surfactant; and secondly, their capacity to form a stable emulsion when the solid lipid is combined with the aqueous phase. […] Further, on the basis of the solubility of ACP in various surfactants, separate placebo batches of SLNs were prepared using the selected surfactant(s), in order to assess their ability to stabilize the SLNs by evaluating the particle size via dynamic light scattering.

[2] = Solubility of ACP in molten solid lipids; assay type: physicochemical
Description: The solid lipids were screened on the basis of biocompatibility and visual evaluation of the solubility of ACP in the lipids. Solid lipids such as GB (Compritol® 888 ATO), glyceryl di-stearate (Precirol ATO 5), glyceryl trimyristate (Dynasan 114), stearic acid, SP (Kolliwax® S) and cetyl palmitate were selected for solubility studies, as they were reported to be biocompatible. In the solubility studies, approximately 200 mg of each lipid was weighed separately and melted by heating to 5–10 °C above its corresponding melting point using a magnetic stirrer equipped with a temperature controlling program. ACP was added in small amounts to each lipid (in molten state), incrementally, up to a maximum of 100 mg under continuous stirring (150–200 rpm) while maintaining the temperature (5–10 °C above its corresponding melting point) until some amount of ACP was present in undissolved / powder form in the lipid. Further, the lipids in which the drug has similar solubility, the lipid solutions (ACP dissolved in lipid) were maintained at the same temperature for 60 min to observed for any precipitation of the drug.

[3] = In vitro dissolution studies, USP type II apparatus; assay type: physicochemical; settings: pH 6.8, 0.5% w/v SDS, within 2 h
Description: Dissolution studies were performed using USP type II dissolution apparatus under conditions simulating the fluids in different parts of the gastrointestinal tract (200 mL of pH 1.2 ± 0.02; 4.5 ± 0.02 buffer; and 900 mL of pH 6.8 ± 0.02 buffer) and blood/plasma (500 mL of pH 7.4 ± 0.02 buffer). […] The temperature was maintained at 37 ± 2 °C with a constant stirring rate of 75 rpm. At predetermined time intervals, 1000 μL samples were withdrawn from the dissolution media via a syringe and replenished with the same volume of fresh media (to retain the sink condition). The samples were immediately centrifuged at 15,373 × g in an ultracentrifuge. The supernatant was collected, diluted with mobile phase (methanol with 10 mM (pH 3.5) ammonium acetate buffer at a ratio of 52:48), and analysed via an HPLC–UV-based analytical method (mentioned in Sect. 3.2). The dissolution data obtained were contoured into different mathematical models (zero order; first order; and Higuchi square root kinetics) to determine the kinetics of drug release. The best fit model was analysed on the basis of the regression coefficient.

[4] = Saturation solubility of ACP in buffers with 0.5% w/v SDS; assay type: physicochemical; settings: buffer systems with 0.5% w/v SDS; pH 4.5; 6.8; and 7.4 in the presence of 0.5% w/v SDS
From the text: The inherent hydrophobicity of ACP results in a solubility profile that is dependent on pH. […] It is very important to maintain sink condition during the in vitro dissolution study of any drug product. To maintain sink condition in the in vitro dissolution studies of hydrophobic drugs, various strategies can be employed, including, addition of surfactant; maintaining large volumes of dissolution media; addition of co-solvents; and use of a different dissolution apparatus like a flow through cell etc.. Of all the above strategies, addition of surfactants (either ionic or non-ionic) is the most commonly employed strategy. SDS, an anionic surfactant, is used to improve the wettability and saturation solubility of hydrophobic drugs in aqueous media. Researchers have used SDS in the range of 0.2 to 20% w/v to maintain the sink condition in the in vitro dissolution studies of formulations containing hydrophobic molecules. Thus, in order to achieve a sink condition, 0.5% w/v SDS was added in buffer systems having a pH of 4.5 and higher. […] Based on the above criteria, we have determined the minimum volume of pH 4.5, pH 6.8 and pH 7.4 (containing 0.5% w/v SDS) required to dissolve the entire drug dose administered in the formulation to be at least 130 mL.

[5] = cited from earlier work
[6] = cited from earlier work; remark: listed apart in the source
[7] = set-up: method as in doi:10.1002/sscp.202400110; settings: Wistar rats; cited from earlier work

## CC#CC(=O)N1CCC[C@H]1c1nc(-c2ccc(C(=O)Nc3ccccn3)cc2)c2c(N)nccn12 [ACP, Acalabrutinib]
[1]; aqueous surfactant solution (Gelucire 44/14), Gelucire 44/14 0.15 % w/v, read-out: ACP solubility
  solubility: 1.36 µg/mL (≈ 2.92 µM)
[1]; aqueous surfactant solution (Gelucire 44/14), Gelucire 44/14 2 % w/v, read-out: ACP solubility
  solubility: 2.27 µg/mL (≈ 4.88 µM)
[1]; aqueous surfactant solution (Gelucire 48/16), Gelucire 48/16 0.15 % w/v, read-out: ACP solubility
  solubility: 1.18 µg/mL (≈ 2.54 µM)
[1]; aqueous surfactant solution (Gelucire 48/16), Gelucire 48/16 2 % w/v, read-out: ACP solubility
  solubility: 2.96 µg/mL (≈ 6.36 µM)
[1]; aqueous surfactant solution (PVP K30), Polyvinyl Pyrrolidone (PVP)- K30 0.15 % w/v, read-out: ACP solubility
  solubility: 0.748 µg/mL (≈ 1.61 µM)
[1]; aqueous surfactant solution (PVP K30), Polyvinyl Pyrrolidone (PVP)- K30 2 % w/v, read-out: ACP solubility
  solubility: 2.27 µg/mL (≈ 4.88 µM)
[1]; aqueous surfactant solution (Tween 80), 1% w/v solution of T80, read-out: solubility of ACP
  solubility: < 0.1 µg/mL
[1]; aqueous surfactant solution (Tween 80), Tween 80 (T80) 0.15 % w/v, read-out: ACP solubility
  solubility: 0.0523 µg/mL (≈ 0.112 µM)
[1]; aqueous surfactant solution (Tween 80), Tween 80 (T80) 2 % w/v, read-out: ACP solubility
  solubility: 0.194 µg/mL (≈ 0.417 µM)
[1]; aqueous surfactant solution (poloxamer 188), 1% w/v solution of P188, read-out: solubility of ACP
  solubility: < 0.1 µg/mL
[1]; aqueous surfactant solution (poloxamer 188), Poloxamer 188 (P188) 0.15 % w/v, read-out: ACP solubility
  solubility: 0.0075 µg/mL (≈ 0.0161 µM)
[1]; aqueous surfactant solution (poloxamer 188), Poloxamer 188 (P188) 2 % w/v, read-out: ACP solubility
  solubility: 0.0202 µg/mL (≈ 0.0434 µM)
[1]; aqueous surfactant solution (poloxamer 407), Poloxamer 407 (P407) 0.15 % w/v, read-out: ACP solubility
  solubility: 0.209 µg/mL (≈ 0.45 µM)
[1]; aqueous surfactant solution (poloxamer 407), Poloxamer 407 (P407) 2 % w/v, read-out: ACP solubility
  solubility: 1.74 µg/mL (≈ 3.74 µM)
[1]; aqueous surfactant solution (polyvinyl alcohol), Polyvinyl Alcohol (PVA) 0.15 % w/v, read-out: ACP solubility
  solubility: 0.0137 µg/mL (≈ 0.0294 µM)
[1]; aqueous surfactant solution (polyvinyl alcohol), Polyvinyl Alcohol (PVA) 2 % w/v, read-out: ACP solubility
  solubility: 0.109 µg/mL (≈ 0.234 µM)
[2]; in 200 mg of GB (glyceryl di-behenate)
  solubility of ACP in lipid: ~ 40 mg
[2]; in 200 mg of SP (stearyl palmitate)
  solubility of ACP in lipid: > 80 mg
[3]
  ACP dissolved: more than 80%
[4]
  solubility: ≥ 770 µg/mL
[5]; 0.01 N HCl (pH = 2)
  solubility of ACP: 3730 µg/mL
[5]; 0.1 N HCl (pH = 1)
  solubility of ACP: 29200 µg/mL
[5]; acetate or citrate buffer (pH = 4.5)
  solubility of ACP: 159 µg/mL
[5]
  maximum basic pKa: 5.77
  solubility above pH 6: practically insoluble
[6]
  excreted in faeces: 84%
  excreted in urine: 12%
  unchanged ACP, share of the total amount eliminated: less than 2%
[7]
  absolute oral bioavailability: 22.83% ± 5.015%
